Broadly, the IC50 is the concentration that inhibits the measured activity by half.

Results on 16 compounds are retold here after ChEMBL document CHEMBL5634157, “Design and synthesis of certain 7-Aryl-2-Methyl-3-Substituted Pyrazolo{1,5-a}Pyrimidines as multikinase inhibitors” (Eur J Med Chem, 2023).

Activity calls are given as the source filed them. No cut-off for these calls is given here.

For series [1], the target named is Serine/threonine-protein kinase pim-1 (Homo sapiens, UniProt P11309). Briefly: Inhibition of human recombinant full-length PIM1 expressed in baculovirus infected Sf9 cells using S6K as substrate in presence of ATP by ADP-Glo luminescence kinase assay. Background: In ADP-Glo the light output rises with the ADP produced.
The target in a further series is T1, Activin receptor type-1 (Homo sapiens, UniProt Q04771).
T1 sequence (Q04771 whole entry): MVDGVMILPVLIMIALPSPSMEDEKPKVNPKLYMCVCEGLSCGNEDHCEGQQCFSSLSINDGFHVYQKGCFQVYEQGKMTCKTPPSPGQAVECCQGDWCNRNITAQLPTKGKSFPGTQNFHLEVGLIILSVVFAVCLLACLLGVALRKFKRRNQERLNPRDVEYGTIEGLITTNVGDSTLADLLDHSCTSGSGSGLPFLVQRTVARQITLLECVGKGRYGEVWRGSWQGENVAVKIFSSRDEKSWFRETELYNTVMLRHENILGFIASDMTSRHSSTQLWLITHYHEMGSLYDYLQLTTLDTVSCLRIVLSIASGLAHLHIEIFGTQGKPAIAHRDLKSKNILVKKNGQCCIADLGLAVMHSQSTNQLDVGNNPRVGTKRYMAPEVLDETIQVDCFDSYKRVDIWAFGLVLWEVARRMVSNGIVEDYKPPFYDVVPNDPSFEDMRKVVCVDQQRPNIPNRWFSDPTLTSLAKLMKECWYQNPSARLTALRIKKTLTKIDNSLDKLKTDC
Briefly: Inhibition of human recombinant GST-tagged-ALK2 (147 to 509 residues) using Casein as substrate in presence of ATP by ADP-Glo luminescence assay.

Series [2] concerns the target Casein kinase II subunit alpha (Homo sapiens, UniProt P68400). Briefly: Inhibition of human recombinant full-length C-terminal His tagged-CK2 alpha expressed in Escherichia coli using tetra-methylbenzidine as substrate in presence of ATP by ELISA analysis.
Series [3] deals with Cyclin-dependent kinase 2 (Homo sapiens, UniProt P24941). Briefly: Inhibition of human CDK2 by ELISA analysis. On the technique in general: ELISA stands for enzyme-linked immunosorbent assay.
Series [4] has as its target T2, Serine/threonine-protein kinase Chk1 (Homo sapiens, UniProt O14757).
T2 sequence (O14757 whole entry): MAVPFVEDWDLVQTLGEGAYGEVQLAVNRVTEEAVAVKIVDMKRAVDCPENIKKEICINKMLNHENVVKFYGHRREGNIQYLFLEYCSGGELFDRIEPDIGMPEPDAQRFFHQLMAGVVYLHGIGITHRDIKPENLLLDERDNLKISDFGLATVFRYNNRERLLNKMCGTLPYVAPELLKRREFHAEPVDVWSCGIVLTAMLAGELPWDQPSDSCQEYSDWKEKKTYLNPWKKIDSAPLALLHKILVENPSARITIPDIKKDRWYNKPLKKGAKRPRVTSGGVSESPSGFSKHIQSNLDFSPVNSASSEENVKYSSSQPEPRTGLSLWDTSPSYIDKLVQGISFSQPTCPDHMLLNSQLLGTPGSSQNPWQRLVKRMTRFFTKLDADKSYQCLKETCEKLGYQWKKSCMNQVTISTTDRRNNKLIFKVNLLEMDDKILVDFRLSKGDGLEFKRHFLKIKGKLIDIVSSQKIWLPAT
Briefly: Inhibition of human recombinant CHK1 using CHKtide as substrate in presence of ATP by ADP-Glo luminescence kinase assay.

The test system of the next series is KM12. Briefly: Antiproliferative activity against human KM12 cells assessed as inhibition of cell viability by MTT assay. Background: Tetrazolium assays rely on reduction of a dye to a coloured formazan, in cell work by metabolically active cells.
The subject of the next series is EKVX. Briefly: Antiproliferative activity against human EKVX cells assessed as inhibition of cell viability by MTT assay.
A short description of series [5]: Inhibition of human recombinant FLT3 using myelin basic protein as substrate in presence of ATP by ADP-Glo luminescence kinase assay.
Series [6] concerns the target Proto-oncogene tyrosine-protein kinase receptor Ret (Homo sapiens, UniProt P07949). Briefly: Inhibition of human recombinant GST tagged-RET using IRF-1Rtide as substrate in presence of ATP by ADP-Glo luminescence kinase assay.
Series [7] deals with Epidermal growth factor receptor (Homo sapiens, UniProt P00533). Briefly: Inhibition of human recombinant GST tagged-EGFR using Poly (Glu,Tyr) 4:1 as substrate in presence of ATP by ADP-Glo luminescence kinase assay.
The target of series [8] is Mast/stem cell growth factor receptor Kit (Homo sapiens, UniProt P10721). Briefly: Inhibition of human recombinant N-terminal GST tagged-c-KIT (544 to end residues) expressed in baculovirus infected Sf9 cells using Poly (Glu,Tyr) 4:1 as substrate in presence of ATP by ADP-Glo luminescence kinase assay.
The target of series [9] is Proto-oncogene tyrosine-protein kinase ROS (Homo sapiens, UniProt P08922). The series can be described thus: Inhibition of human recombinant GST tagged-ROS1 using IRF-1Rtide as substrate in presence of ATP by ADP-Glo luminescence kinase assay.
Series [10] in a line: Cytotoxicity against human FHCs assessed as inhibition of cell viability by MTT assay. The series is classed as toxicity, cell-based. The note with it: FHC cells.
Series [11] is described as follows: Cytotoxicity against human MCF-10A cells assessed as inhibition of cell viability by MTT assay. In kind it is toxicity, cell-based.
For series [12], the target named is T3, Activin receptor type-1 (Homo sapiens) (UniProt Q04771).
T3 sequence (whole entry): T1 sequence (Q04771 whole entry)
Briefly: Inhibition of ALK2 in human EKVX cells by Western blotting analysis. In kind it is cell-based.

Chain of Casein kinase II subunit alpha (P68400 whole entry): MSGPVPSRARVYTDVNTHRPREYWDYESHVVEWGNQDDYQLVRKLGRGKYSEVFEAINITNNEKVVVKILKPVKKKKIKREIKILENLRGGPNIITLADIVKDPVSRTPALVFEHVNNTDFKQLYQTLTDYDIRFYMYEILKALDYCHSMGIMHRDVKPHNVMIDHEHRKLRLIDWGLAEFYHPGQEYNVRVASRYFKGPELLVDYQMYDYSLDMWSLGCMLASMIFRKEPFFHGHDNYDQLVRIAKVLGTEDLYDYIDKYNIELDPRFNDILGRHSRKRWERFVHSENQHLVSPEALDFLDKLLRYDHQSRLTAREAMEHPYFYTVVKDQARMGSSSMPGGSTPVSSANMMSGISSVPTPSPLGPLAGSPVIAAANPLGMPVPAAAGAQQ
Chain of Proto-oncogene tyrosine-protein kinase receptor Ret (P07949 whole entry): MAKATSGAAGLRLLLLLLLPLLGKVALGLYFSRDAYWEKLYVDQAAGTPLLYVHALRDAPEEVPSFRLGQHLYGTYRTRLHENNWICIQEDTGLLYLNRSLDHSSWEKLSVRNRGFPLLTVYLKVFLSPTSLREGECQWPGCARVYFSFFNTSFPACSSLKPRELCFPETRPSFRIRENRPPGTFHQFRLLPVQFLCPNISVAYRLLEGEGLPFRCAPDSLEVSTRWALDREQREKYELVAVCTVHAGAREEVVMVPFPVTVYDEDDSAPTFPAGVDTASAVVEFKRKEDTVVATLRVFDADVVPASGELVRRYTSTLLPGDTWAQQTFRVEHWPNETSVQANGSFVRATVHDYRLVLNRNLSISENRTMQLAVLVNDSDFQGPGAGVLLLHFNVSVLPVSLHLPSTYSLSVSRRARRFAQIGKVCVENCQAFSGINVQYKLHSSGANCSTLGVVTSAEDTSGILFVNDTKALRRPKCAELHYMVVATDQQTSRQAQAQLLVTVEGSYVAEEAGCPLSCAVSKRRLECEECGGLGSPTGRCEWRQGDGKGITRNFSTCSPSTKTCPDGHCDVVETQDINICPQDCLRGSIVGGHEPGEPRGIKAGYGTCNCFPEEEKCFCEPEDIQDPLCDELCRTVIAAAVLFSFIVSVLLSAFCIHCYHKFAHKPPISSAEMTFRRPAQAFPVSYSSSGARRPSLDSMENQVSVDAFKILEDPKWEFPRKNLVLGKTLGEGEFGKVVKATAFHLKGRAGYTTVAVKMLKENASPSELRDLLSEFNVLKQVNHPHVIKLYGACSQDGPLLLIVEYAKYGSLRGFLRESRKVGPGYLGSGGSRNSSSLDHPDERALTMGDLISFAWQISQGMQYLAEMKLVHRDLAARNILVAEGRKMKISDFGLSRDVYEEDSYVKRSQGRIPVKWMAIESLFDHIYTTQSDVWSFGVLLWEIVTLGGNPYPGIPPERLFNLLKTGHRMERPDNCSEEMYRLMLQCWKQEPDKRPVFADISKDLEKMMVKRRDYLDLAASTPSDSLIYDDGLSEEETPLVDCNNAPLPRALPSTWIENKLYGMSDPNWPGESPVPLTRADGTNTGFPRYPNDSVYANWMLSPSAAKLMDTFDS
Chain of Proto-oncogene tyrosine-protein kinase ROS (P08922 whole entry): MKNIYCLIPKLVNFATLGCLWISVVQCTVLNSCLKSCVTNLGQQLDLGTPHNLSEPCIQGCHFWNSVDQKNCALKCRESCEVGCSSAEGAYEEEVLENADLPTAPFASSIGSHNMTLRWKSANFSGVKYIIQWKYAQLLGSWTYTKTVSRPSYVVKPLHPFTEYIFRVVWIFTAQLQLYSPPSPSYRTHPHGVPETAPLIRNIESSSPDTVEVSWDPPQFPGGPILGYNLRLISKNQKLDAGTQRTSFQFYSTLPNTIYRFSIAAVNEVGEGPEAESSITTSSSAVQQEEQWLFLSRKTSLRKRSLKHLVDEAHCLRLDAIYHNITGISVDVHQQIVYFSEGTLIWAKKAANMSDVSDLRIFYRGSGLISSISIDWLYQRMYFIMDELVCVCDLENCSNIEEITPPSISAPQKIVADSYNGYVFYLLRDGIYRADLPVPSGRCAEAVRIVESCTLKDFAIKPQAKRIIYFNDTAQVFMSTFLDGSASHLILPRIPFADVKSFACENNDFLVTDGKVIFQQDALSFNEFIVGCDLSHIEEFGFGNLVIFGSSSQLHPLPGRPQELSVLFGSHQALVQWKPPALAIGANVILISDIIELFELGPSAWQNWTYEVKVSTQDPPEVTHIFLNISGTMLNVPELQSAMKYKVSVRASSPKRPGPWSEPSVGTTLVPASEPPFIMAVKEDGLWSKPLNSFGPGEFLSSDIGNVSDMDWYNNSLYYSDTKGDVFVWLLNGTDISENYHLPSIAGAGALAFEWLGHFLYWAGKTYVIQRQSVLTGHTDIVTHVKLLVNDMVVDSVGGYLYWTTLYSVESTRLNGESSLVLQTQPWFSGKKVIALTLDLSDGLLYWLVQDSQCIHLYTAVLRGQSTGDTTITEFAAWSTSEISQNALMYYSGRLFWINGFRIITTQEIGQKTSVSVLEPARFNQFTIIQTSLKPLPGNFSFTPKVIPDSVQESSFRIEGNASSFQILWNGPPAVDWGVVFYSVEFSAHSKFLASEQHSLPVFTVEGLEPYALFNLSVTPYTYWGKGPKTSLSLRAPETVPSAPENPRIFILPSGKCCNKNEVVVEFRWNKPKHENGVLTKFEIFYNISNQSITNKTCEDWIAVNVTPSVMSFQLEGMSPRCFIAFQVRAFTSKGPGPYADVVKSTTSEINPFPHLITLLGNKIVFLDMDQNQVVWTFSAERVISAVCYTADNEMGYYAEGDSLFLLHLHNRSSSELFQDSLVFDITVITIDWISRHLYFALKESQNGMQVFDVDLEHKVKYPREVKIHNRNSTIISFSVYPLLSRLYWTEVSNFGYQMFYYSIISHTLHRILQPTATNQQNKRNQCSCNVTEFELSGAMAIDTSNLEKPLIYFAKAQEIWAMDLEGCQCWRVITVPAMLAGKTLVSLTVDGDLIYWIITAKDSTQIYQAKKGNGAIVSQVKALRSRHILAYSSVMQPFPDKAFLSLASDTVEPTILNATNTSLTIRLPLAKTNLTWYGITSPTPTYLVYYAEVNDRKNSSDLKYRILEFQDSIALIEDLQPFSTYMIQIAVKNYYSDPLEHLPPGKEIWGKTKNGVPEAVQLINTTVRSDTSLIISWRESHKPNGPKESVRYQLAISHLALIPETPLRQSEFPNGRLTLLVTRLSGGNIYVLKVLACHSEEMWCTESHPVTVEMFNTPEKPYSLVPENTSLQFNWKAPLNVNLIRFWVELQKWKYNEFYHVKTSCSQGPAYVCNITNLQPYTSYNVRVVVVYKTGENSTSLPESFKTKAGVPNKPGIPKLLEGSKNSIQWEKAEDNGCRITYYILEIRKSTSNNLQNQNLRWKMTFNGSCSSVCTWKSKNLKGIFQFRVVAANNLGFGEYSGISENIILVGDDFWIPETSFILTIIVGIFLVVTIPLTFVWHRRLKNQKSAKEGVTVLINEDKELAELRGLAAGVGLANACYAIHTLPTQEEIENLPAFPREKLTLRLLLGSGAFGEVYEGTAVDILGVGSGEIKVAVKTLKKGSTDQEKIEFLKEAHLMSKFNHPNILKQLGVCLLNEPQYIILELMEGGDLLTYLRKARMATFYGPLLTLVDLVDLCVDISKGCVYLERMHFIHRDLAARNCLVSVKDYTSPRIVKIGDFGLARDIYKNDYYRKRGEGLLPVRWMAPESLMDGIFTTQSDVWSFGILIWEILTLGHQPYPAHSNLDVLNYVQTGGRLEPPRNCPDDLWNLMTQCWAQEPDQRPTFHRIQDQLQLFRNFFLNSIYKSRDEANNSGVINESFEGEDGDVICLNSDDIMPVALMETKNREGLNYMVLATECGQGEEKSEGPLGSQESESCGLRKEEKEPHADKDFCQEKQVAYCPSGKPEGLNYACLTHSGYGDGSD
Chain of Serine/threonine-protein kinase pim-1 (P11309 whole entry): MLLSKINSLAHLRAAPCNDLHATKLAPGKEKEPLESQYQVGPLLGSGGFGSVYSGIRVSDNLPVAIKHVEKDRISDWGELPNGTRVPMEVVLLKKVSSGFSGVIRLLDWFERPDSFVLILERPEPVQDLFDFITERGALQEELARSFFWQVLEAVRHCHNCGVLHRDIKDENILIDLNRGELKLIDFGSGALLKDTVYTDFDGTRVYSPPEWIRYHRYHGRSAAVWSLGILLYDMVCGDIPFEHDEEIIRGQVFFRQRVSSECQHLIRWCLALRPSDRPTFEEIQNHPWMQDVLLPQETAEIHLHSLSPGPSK

For `O=c1c(O)c(-c2cc(O)c(O)c(O)c2)oc2cc(O)cc(O)c12` [MYRICETIN], the IC50 in series [1] was found to be 4060 nM.

Regarding `Cc1ccc(-c2ccnc3c(C#N)c(C)nn23)cc1`, the IC50 on Activin receptor type-1 came to 55 nM.

On to `Cc1nc(-c2c(C)nn3c(-c4ccccc4)ccnc23)no1`, for which the IC50 was 289 nM in series [2], 1290 nM in [3] and 119 nM in [4].

Take `Cn1cc(-c2cnn3c(N)cc([C@@H]4CCCNC4)nc23)cn1`: in series [4], the IC50 is 34 nM.

For the compound `Cc1nn2c(-c3ccc(Br)cc3)ccnc2c1C#N`, the IC50 on Activin receptor type-1 came out at 105 nM.

In the case of `Cc1nn2c(-c3ccc(Br)cc3)ccnc2c1/C(N)=N/O`, the values for the IC50 in [2], in [3] and in series [4] were 122 nM, 590 nM and 74 nM, respectively.

For the compound `Cc1nn2c(-c3ccc(Cl)cc3)ccnc2c1C#N`, at Activin receptor type-1, the IC50 was found to be 235 nM.

As to `Cc1nn2c(-c3ccc(Br)cc3)ccnc2c1C(N)=O`, the IC50 on Activin receptor type-1 was determined as 354 nM.

Regarding `O=C(Nc1cnn2ccc(N3CCC[C@@H]3c3cc(F)ccc3F)nc12)N1CC[C@H](O)C1` [LAROTRECTINIB], the IC50 is 4680 nM with KM12 and 7330 nM in the series on EKVX.

For the compound `CCc1nc(C(N)=O)c(Nc2ccc(N3CCC(N4CCN(C)CC4)CC3)c(OC)c2)nc1NC1CCOCC1` [GILTERITINIB], the IC50 in series [5] was 64 nM.

With `COc1ccc(-c2ccnc3c(-c4noc(C)n4)c(C)nn23)cc1`, the IC50 in series [6] was 537 nM; in series [2] it was 93 nM; in series [7], 106 nM; on Activin receptor type-1 it was 37 nM; in series [8] it was 59 nM; in [9], 759 nM. For the same compound, the IC50 in series [3] is 710 nM; in series [4], 156 nM.

As to `Cc1nn2c(-c3ccc(Cl)cc3)ccnc2c1C(N)=O`, the IC50 on Activin receptor type-1 was 182 nM.

Consider `COc1cccc2c1C(=O)c1c(O)c3c(c(O)c1C2=O)C[C@@](O)(C(=O)CO)C[C@@H]3O[C@H]1C[C@H](N)[C@H](O)[C@H](C)O1` [DOXORUBICIN], for which the IC50 amounted to 17600 nM in series [10] and 13400 nM in [11].

In the case of `Cc1nn2c(-c3ccc(Cl)cc3)ccnc2c1/C(N)=N/O`, the IC50 was determined as 217 nM in series [2], 1070 nM in [3] and 327 nM in series [4].

For the compound `Cc1nn2c(-c3ccccc3)ccnc2c1/C(N)=N/O`, the IC50 in [2] stood at 72 nM; in series [3], 1730 nM; in series [4] it was 85 nM.

As to `C[C@H]1Oc2cc(cnc2N)-c2c(nn(C)c2C#N)CN(C)C(=O)c2ccc(F)cc21` [LORLATINIB], the inhibition entry in series [12] was “Active”. On Activin receptor type-1, the IC50 was found to be 29 nM.
